pEC50: −log10 of the molar value.
Key:
[1] = target: T1, GLP1R (Homo sapiens, UniProt P43220); assay: GLP1R cAMP HTRF assay, HEK293/GLP-1R/CRE/Luc (HEK293T cells); format: cell-based; conditions: read-out: EC50
Procedure, shortened: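 cAMP accumulation via HTRF after 30 min, 37 °C exposure of 1000 receptor-expressing cells/well to compound (0.5% DMSO final) in IBMX (500 μM)/0.1% BSA DPBS.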

[2] = target: T1, GLP1R; assay: GLP1R cAMP assay, CHO cells stably expressing human GLP-1R; format: cell-based; conditions: CHO cells stably expressing GLP-1R, read-out: CHO cAMP stable EC50
Procedure: GLP-1R-mediated agonist activity was determined with a cell-based functional assay utilizing an HTRF (Homogeneous Time-Resolved Fluorescence) cAMP detection kit (cAMP Dynamic 2 Assay Kit; CisBio cat #62AM4PEC) that measures cAMP levels in the cell. The method is a competitive immunoassay between native cAMP produced by the cells and exogenous cAMP labeled with the dye d2. The tracer binding is visualized by a mAb anti-cAMP labeled with Cryptate. The specific signal (i.e., energy transfer) is inversely proportional to the concentration of cAMP in either standard or experimental sample.
Varying concentrations of each compound to be tested (in DMSO) were diluted in DMSO to obtain 200× compound working solution first and then 50 nl compounds were added to a white 384-well assay plate (Greiner 784075) with ECHO. The final DMSO concentration was 0.5%. The compound concentration range may be adjusted at any time.
Cells were removed from cryopreservation, re-suspended in 5 mL of Dulbecco's Phosphate Buffered Saline (DPBS-Sigma Cat # D8537) and centrifuged at 900 g for 5 min at 22° C. The cell pellet was then re-suspended in 1 mL of assay buffer [DPBS with 500 μM IBMX (Sigma #15879) and 0.1% BSA (Sigma # A1933). IBMX and BSA were freshly added on the day of assay]. A 10 μL sample of the cell suspension was counted on an Invitrogen Countess II to determine cell viability and cell count per mL. The remaining cell suspension was then adjusted with assay buffer to deliver 1000 viable cells per well using a Matrix Combi Multidrop reagent dispenser. 10 μL cell suspensions were added to each well of the assay plate which already contains compound. The plate was sealed and incubated at 37° C. with 5% CO2 for 30 minutes.
Following the 30 minute incubation, 5 μL of labeled d2 cAMP and 5 μL of anti-cAMP antibody (both diluted 1:20 in cell lysis buffer; as described in the manufacturer's assay protocol) were added to each well of the assay plate. The plates w ere then incubated at room temperature and after 60 minutes, changes in the HTRF signal were read with an Envision multi-label plate reader using excitation of 330 nm and emissions of 615 and 665 nm. Raw data were converted to nM cAMP by interpolation from a cAMP standard curve (as described in the manufacturer's assay protocol) and the percent effect was determined relative to a saturating concentration of the full agonist GLP-17-37 (10 nM) included on each plate. EC50 determinations were made from agonist dose-response curves analyzed with a curve fitting program using a 4-parameter logistic dose response equation. […]

T1 sequence (P43220 24-463): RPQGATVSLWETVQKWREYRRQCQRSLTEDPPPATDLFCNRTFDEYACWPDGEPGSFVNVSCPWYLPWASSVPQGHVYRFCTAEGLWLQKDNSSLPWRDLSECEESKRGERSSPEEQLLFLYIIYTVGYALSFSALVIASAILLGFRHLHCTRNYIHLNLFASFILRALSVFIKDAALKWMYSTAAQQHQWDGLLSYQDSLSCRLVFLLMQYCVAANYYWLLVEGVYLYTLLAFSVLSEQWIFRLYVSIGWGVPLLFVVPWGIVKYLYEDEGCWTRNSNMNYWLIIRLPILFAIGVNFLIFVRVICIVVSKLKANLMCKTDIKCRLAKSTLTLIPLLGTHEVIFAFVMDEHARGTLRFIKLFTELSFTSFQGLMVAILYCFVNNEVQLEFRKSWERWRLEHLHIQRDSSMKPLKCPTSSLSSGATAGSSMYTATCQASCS

Row | SMILES | pEC50 [1] | pEC50 [2]
1 | O=C(O)c1ccc2nc(CN3CCC(c4ccnc(OCc5ccc(Cl)cc5F)n4)CC3)n(C[C@@H]3CCO3)c2c1 [Compound 18, (S)-2-((4-(2-((4-chloro-2-fluorobenzyl)oxy)pyrimidin-4-yl)piperidin-1-yl)methyl)-1-(oxetan-2-ylmethyl)-1H-benzo[d]imidazole-6-carboxylic acid] | ≥ 7.82 | ≥ 6.82
2 | N#Cc1ccc(COc2cccc(C3=CCN(Cc4nc5ccc(C(=O)O)cc5n4C[C@@H]4CCO4)CC3)n2)c(F)c1 [Compound 19, (S)-2-((4-(6-(4-cyano-2-fluorobenzyloxy)pyridin-2-yl)-5,6-dihydropyridin-1(2H)-yl)methyl)-1-(oxetan-2-ylmethyl)-1 h-benzo[d]imidazole-6-carboxylic add] | ≥ 7.82 | ≥ 7.82
3 | O=C(O)c1ccc2nc(CN3CCC(c4cncc(OCc5ccc(Cl)cc5F)n4)CC3)n(C[C@@H]3CCO3)c2c1 [Compound 21, (S)-2-((4-(6-(4-chloro-2-fluorobenzyloxy)pyrazin-2-yl)piperidin-1-yl)methyl)-1-(oxetan-2-ylmethyl)-1 h-benzo[d]imidazole-6-carboxylic acid] | ≥ 7.82 | ≥ 6.00
4 | N#Cc1ccc(COc2cncc(C3CCN(Cc4nc5ccc(C(=O)O)cc5n4C[C@@H]4CCO4)CC3)n2)c(F)c1 [Compound 22, (S)-2-((4-(6-(4-cyano-2-fluorobenzyloxy)pyrazin-2-yl)piperidin-1-yl)methyl)-1-(oxetan-2-ylmethyl)-1 h-benzo[d]imidazole-6-carboxylic acid] | ≥ 6.82 | ≥ 6.00
5 | N#Cc1ccc(COc2cncc(C3=CCN(Cc4nc5ccc(C(=O)O)cc5n4C[C@@H]4CCO4)CC3)n2)c(F)c1 [Compound 23, (S)-2-((4-(6-(4-cyano-2-fluorobenzyloxy)pyrazin-2-yl)-5,6-dihydropyridin-1(2H)-yl)methyl)-1-(oxetan-2-ylmethyl)-1 h-benzo[d]imidazole-6-carboxylic acid] | ≥ 7.82 | ≥ 6.00
6 | O=C(O)c1ccc2nc(CN3CC=C(c4cccc(OCc5ccc(Cl)cc5F)c4)CC3)n(C[C@@H]3CCO3)c2c1 [Compound 28, (S)-2-((4-(3-((4-chloro-2-fluorobenzyl)oxy)phenyl)-3,6-dihydropyridin-1(2H)-yl)methyl)-1-(oxetan-2-ylmethyl)-1 h-benzo[d]imidazole-6-carboxylic add] | ≥ 7.82 | ≥ 6.82
7 | O=C(O)c1ccc2nc(CN3CC=C(c4ccc(F)c(OCc5ccc(Cl)cc5F)c4)CC3)n(C[C@@H]3CCO3)c2c1 [Compound 29, (S)-2-((4-(3-((4-chloro-2-fluorobenzyl)oxy)-4-fluorophenyl)-3,6-dihydropyridin-1(2H)-yl)methyl)-1-(oxetan-2-ylmethyl)-1 h-benzo[d]imidazole-6-carboxylic acid] | ≥ 7.82 | ≥ 6.82
8 | O=C(O)c1ccc2nc(CN3CC=C(c4cncc(OCc5ccc(Cl)cc5F)n4)CC3)n(C[C@@H]3CCO3)c2c1 [Compound 34, (S)-2-((4-(6-(4-chloro-2-fluorobenzyloxy)pyrazin-2-yl)-5,6-dihydropyridin-1(2H)-yl)methyl)-1-(oxetan-2-ylmethyl)-1 h-benzo[d]imidazole-6-carboxylic acid] | ≥ 7.82 | ≥ 6.82
9 | O=C(O)c1ccc2nc(CN3CC=C(c4ccnc(OCc5ccc(Cl)cc5F)n4)CC3)n(C[C@@H]3CCO3)c2c1 [Compound 35, (S)-2-((4-(2-((4-chloro-2-fluorobenzyl)oxy)pyrimidin-4-yl)-3,6-dihydropyridin-1(2H)-yl)methyl)-1-(oxetan-2-ylmethyl)-1H-benzo[d]imidazole-6-carboxylic add] | ≥ 7.82 | ≥ 6.82
10 | O=C(O)c1ccc2nc(CN3CC=C(c4cccc(OCc5ccc(Cl)cc5F)n4)CC3)n(C[C@@H]3CCO3)c2c1 [Compound 221, (S)-2-((6-((4-chloro-2-fluorobenzyl)oxy)-3′,6′-dihydro-[2,4′-bipyridin]-1′(2′H)-yl)methyl)-1-(oxetan-2-ylmethyl)-1H-benzo[d]imidazole-6-carboxylic acid] | ≥ 7.82 | ≥ 7.82
11 | N#Cc1ccc(COc2nc(C3=CCN(Cc4nc5ccc(C(=O)O)cc5n4C[C@@H]4CCO4)CC3)ccc2F)c(F)c1 [Compound 222, (S)-2-((6-((4-cyano-2-fluorobenzyl)oxy)-5-fluoro-3′,6′-dihydro-[2,4′-bipyridin]-1′(2′H)-yl)methyl)-1-(oxetan-2-ylmethyl)-1H-benzo[d]imidazole-6-carboxylic acid] | ≥ 7.82 | ≥ 7.82
12 | O=C(O)c1ccc2nc(CN3CC=C(c4cccc(OCc5ccc(Cl)cc5F)c4)CC3)n(C[C@@H]3CCO3)c2n1 [Compound 224, (S)-2-((4-(3-((4-chloro-2-fluorobenzyl)oxy)phenyl)-3,6-dihydropyridin-1(2H)-yl)methyl)-3-(oxetan-2-ylmethyl)-3H-imidazo[4,5-b]pyridine-5-carboxylic acid] | ≥ 7.82 | ≥ 6.82

Further lines, results first:

Row | pEC50 [1] | pEC50 [2] | SMILES
13 | ≥ 7.82 | ≥ 7.82 | N#Cc1ccc(COc2cccc(C3=CCN(Cc4nc5ccc(C(=O)O)nc5n4C[C@@H]4CCO4)CC3)n2)c(F)c1 [Compound 225, (S)-2-((6-((4-cyano-2-fluorobenzyl)oxy)-3′,6′-dihydro-[2,4′-bipyridin]-1′(2′H)-yl)methyl)-3-(oxetan-2-ylmethyl)-3H-imidazo[4,5-b]pyridine-5-carboxylic add]
14 | ≥ 7.82 | ≥ 6.82 | O=C(O)c1ccc2nc(CN3CC=C(c4ccc(F)c(OCc5ccc(Cl)cc5F)c4)CC3)n(C[C@@H]3CCO3)c2n1 [Compound 236, (S)-2-((4-(3-((4-chloro-2-fluorobenzyl)oxy)-4-fluorophenyl)-5,6-dihydropyridin-1(2H)-yl)methyl)-3-(oxetan-2-ylmethyl)-3H-imidazo[4,5-b]pyridine-5-carboxylic acid]
15 | ≥ 7.82 | ≥ 6.82 | O=C(O)c1ccc2nc(CN3CC=C(c4cccc(OCc5ccc(Cl)cc5F)c4)CC3)n(C[C@@H]3CCO3)c2c1F [Compound 237, (S)-2-((4-(3-((4-chloro-2-fluorobenzyl)oxy)phenyl)-3,6-dihydropyridin-1(2H)-yl)methyl)-7-fluoro-1-(oxetan-2-ylmethyl)-1H-benzo[d]imidazole-6-carboxylic acid]
16 | ≥ 7.82 | ≥ 6.82 | O=C(O)c1ccc2nc(CN3CC=C(c4ccc(F)c(OCc5ccc(Cl)cc5F)c4)CC3)n(C[C@@H]3CCO3)c2c1F [Compound 238, (S)-2-((4-(3-((4-chloro-2-fluorobenzyl)oxy)-4-fluorophenyl)-3,6-dihydropyridin-1(2H)-yl)methyl)-7-fluoro-1-(oxetan-2-ylmethyl)-1H-benzo[d]imidazole-6-carboxylic acid]
17 | ≥ 7.82 | ≥ 6.82 | O=C(O)c1ccc2nc(CN3CCC(c4cccc(OCc5ccc(Cl)cc5F)c4)CC3)n(C[C@@H]3CCO3)c2c1 [Compound 239, (S)-2-((4-(3-((4-chloro-2-fluorobenzyl)oxy)phenyl)piperidin-1-yl)methyl)-1-(oxetan-2-ylmethyl)-1H-benzo[d]imidazole-6-carboxylic acid]
18 | ≥ 7.82 | – | O=C(O)c1ccc2nc(CN3CC=C(c4cccc(OCc5ccc(-c6cccnc6)cc5)n4)CC3)n(C[C@@H]3CCO3)c2c1 [Compound 242, (S)-1-(oxetan-2-ylmethyl)-2-((6-((4-(pyridin-3-yl)benzyl)oxy)-3′,6′-dihydro-[2,4′-bipyridin]-1′(2′H)-yl)methyl)-1H-benzo[d]imidazole-6-carboxylic add]
19 | ≥ 7.82 | ≥ 7.82 | O=C(O)c1ccc2nc(CN3CC=C(c4cccc(OCc5ccc(-n6ccnc6)cc5)n4)CC3)n(C[C@@H]3CCO3)c2n1 [Compound 245, (S)-2-((4-(6-(4-(1H-imidazol-1-yl)benzyloxy)pyridin-2-yl)-5,6-dihydropyridin-1(2H)-yl)methyl)-3-(oxetan-2-ylmethyl)-3H-imidazo[4,5-b]pyridine-5-carboxylic add]
